Earlier results, collected in patent US7109191B2, “Benzazepinone alpha vintegrin receptor antagonists” (Merck & Co., Inc., priority 2001, dated 2006).

Tested on: postmenopausal osteoporotic women
Conditions: after a median of 22 months of treatment

Substance: hPTH(1–34): human parathyroid hormone 1–34 fragment (SVSEIQLMHNLGKHLNSMERVEWLRKKLQDVHNF; Parathyroid hormone; UniProt P01270 32-65, looked up, fragment)
- reduction in nonvertebral fractures: 54%
- reduction in spine fractures: ≥ 65%
